Results reported in ChEMBL document CHEMBL4811223, “Arenarosides A-G, Polyhydroxylated Oleanane-Type Saponins from Polycarpaea arenaria and their Cytotoxic and Antiangiogenic Activities” (J Nat Prod, 2021).

Key:
[1] = system: PC-3; assay: Cytotoxicity against human PC-3 cells assessed as cell growth inhibition after 48 hrs by MTT assay; type: functional, cell-based; details: PC-3, 48 h
[2] = system: A549; assay: Cytotoxicity against human A549 cells assessed as cell growth inhibition after 48 hrs by MTT assay; type: functional, cell-based; details: A549, 48 h
[3] = system: HCT-116; assay: Cytotoxicity against human HCT-116 cells assessed as cell growth inhibition after 48 hrs by MTT assay; type: functional, cell-based; details: HCT-116, 48 h
[4] = system: RT-112; assay: Cytotoxicity against human RT-112 cells assessed as cell growth inhibition after 48 hrs by MTT assay; type: functional, cell-based; details: RT-112, 48 h
[5] = Antiangiogenic activity in endothelial cells assessed as inhibition of tube formation incubated for 18 hrs by matrigel-based inverted microscopic analysis; type: functional; details: Endothelial cell

| SMILES | IC50 [1] [µM] | IC50 [2] [µM] | IC50 [3] [µM] | IC50 [4] [µM] | IC50 [5] [µM] |
| --- | --- | --- | --- | --- | --- |
| CC(=O)OC[C@@]12[C@H](O)[C@H](O)[C@]3(C)C(=CC[C@@H]4[C@@]5(C)CC[C@H](O[C@@H]6OC[C@H](O[C@@H]7O[C@H](CO)[C@@H](O)[C@H](O)[C@H]7O[C@@H]7OC[C@@H](O)[C@H](O)[C@H]7O)[C@H](O)[C@H]6O[C@@H]6O[C@H](CO)[C@@H](O)[C@H](O)[C@H]6O)C(C)(C)[C@@H]5CC[C@]43C)[C@@H]1CC(C)(C)[C@@H](OC(C)=O)[C@@H]2O | > 10 | > 10 | > 10 | > 10 | 15.9 |
| CC(=O)OC[C@@]12[C@H](O)[C@H](O)[C@]3(C)C(=CC[C@@H]4[C@@]5(C)CC[C@H](O[C@@H]6OC[C@H](O[C@@H]7O[C@H](CO)[C@@H](O)[C@H](O)[C@H]7O[C@@H]7OC[C@@H](O)[C@H](O)[C@H]7O)[C@H](O)[C@H]6O[C@@H]6O[C@H](CO)[C@@H](O)[C@H](O)[C@H]6O)C(C)(C)[C@@H]5CC[C@]43C)[C@@H]1CC(C)(C)C[C@@H]2O | > 10 | > 10 | 9.8 | 7.8 | 35.8 |
| CC1(C)C[C@H](O)[C@]2(CO)[C@H](O)[C@H](O)[C@]3(C)C(=CC[C@@H]4[C@@]5(C)CC[C@H](O[C@@H]6OC[C@H](O[C@@H]7O[C@H](CO)[C@@H](O)[C@H](O)[C@H]7O[C@@H]7OC[C@@H](O)[C@H](O)[C@H]7O)[C@H](O)[C@H]6O[C@@H]6O[C@H](CO)[C@@H](O)[C@H](O)[C@H]6O)C(C)(C)[C@@H]5CC[C@]43C)[C@@H]2C1 | > 10 | > 10 | > 10 | > 10 | 45.9 |
| CC(=O)O[C@H]1CC(C)(C)C[C@H]2C3=CC[C@@H]4[C@@]5(C)CC[C@H](O[C@@H]6OC[C@H](O[C@@H]7O[C@H](CO)[C@@H](O)[C@H](O)[C@H]7O[C@@H]7OC[C@@H](O)[C@H](O)[C@H]7O)[C@H](O)[C@H]6O[C@@H]6O[C@H](CO)[C@@H](O)[C@H](O)[C@H]6O)C(C)(C)[C@@H]5CC[C@@]4(C)[C@]3(C)[C@@H](O)[C@@H](O)[C@@]12CO | 9.4 | 6.1 | 7.7 | 6.4 | 1.7 |
| CC(=O)O[C@@H]1[C@H](O)[C@]2(C)C(=CC[C@@H]3[C@@]4(C)CC[C@H](O[C@@H]5OC[C@H](O[C@@H]6O[C@H](CO)[C@@H](O)[C@H](O)[C@H]6O[C@@H]6OC[C@@H](O)[C@H](O)[C@H]6O)[C@H](O)[C@H]5O[C@@H]5O[C@H](CO)[C@@H](O)[C@H](O)[C@H]5O)C(C)(C)[C@@H]4CC[C@]32C)[C@@H]2CC(C)(C)C[C@H](O)[C@]12CO | > 10 | > 10 | > 10 | > 10 | 5.1 |
| CC(=O)OC[C@@]12[C@H](O)C[C@]3(C)C(=CC[C@@H]4[C@@]5(C)CC[C@H](O[C@@H]6OC[C@H](O[C@@H]7O[C@H](CO)[C@@H](O)[C@H](O)[C@H]7O[C@@H]7OC[C@@H](O)[C@H](O)[C@H]7O)[C@H](O)[C@H]6O[C@@H]6O[C@H](CO)[C@@H](O)[C@H](O)[C@H]6O)C(C)(C)[C@@H]5CC[C@]43C)[C@@H]1CC(C)(C)[C@@H](OC(C)=O)[C@@H]2O | 9.9 | 9 | 6.8 | > 10 | 5.2 |
| CC(=O)O[C@@H]1C[C@]2(C)C(=CC[C@@H]3[C@@]4(C)CC[C@H](O[C@@H]5OC[C@H](O[C@@H]6O[C@H](CO)[C@@H](O)[C@H](O)[C@H]6O[C@@H]6OC[C@@H](O)[C@H](O)[C@H]6O)[C@H](O)[C@H]5O[C@@H]5O[C@H](CO)[C@@H](O)[C@H](O)[C@H]5O)C(C)(C)[C@@H]4CC[C@]32C)[C@@H]2CC(C)(C)C[C@H](O)[C@]12CO | > 10 | > 10 | > 10 | > 10 | 23.1 |
| CC(=O)O[C@H]1[C@H](OC(C)=O)[C@]2(CO)[C@H](O)[C@H](O)[C@]3(C)C(=CC[C@@H]4[C@@]5(C)CC[C@H](O[C@@H]6OC[C@H](O[C@@H]7O[C@H](CO)[C@@H](O)[C@H](O)[C@H]7O[C@@H]7OC[C@@H](O)[C@H](O)[C@H]7O)[C@H](O)[C@H]6O[C@@H]6O[C@H](CO)[C@@H](O)[C@H](O)[C@H]6O)C(C)(C)[C@@H]5CC[C@]43C)[C@@H]2CC1(C)C | > 10 | 8.7 | > 10 | 7.3 | 3.2 |
| COc1ccc(/C=C\c2cc(OC)c(OC)c(OC)c2)cc1O [COMBRETASTATIN A4] |  |  |  |  | 0.37 |
| CC(=O)O[C@H]1C(=O)[C@@]2(C)[C@H]([C@H](OC(=O)c3ccccc3)[C@]3(O)C[C@H](OC(=O)[C@H](O)[C@@H](NC(=O)c4ccccc4)c4ccccc4)C(C)=C1C3(C)C)[C@]1(OC(C)=O)CO[C@@H]1C[C@@H]2O [PACLITAXEL] | 0.04 | 0.7 |  | 0.07 |  |
